In ChEMBL document CHEMBL1142873, “Synthesis, structural activity relationship and anti-tubercular activity of novel pyrazoline derivatives” (2007):
Values after ≈ are worked out from the molar mass of the structure shown.

Columns and labels:
Type in all cases: functional
[1] = system: Mycobacterium tuberculosis; test: Antimycobacterial activity against Mycobacterium tuberculosis H37Rv
[2] = system: Mycobacterium tuberculosis; test: Antimycobacterial activity against Mycobacterium tuberculosis H37Rv at 0.0118 uM
[3] = system: Mycobacterium tuberculosis; test: Antimycobacterial activity against Mycobacterium tuberculosis H37Rv at 0.0164 uM
[4] = system: Mycobacterium tuberculosis; test: Antimycobacterial activity against Mycobacterium tuberculosis H37Rv at 0.0202 uM
[5] = system: Mycobacterium tuberculosis; test: Antimycobacterial activity against Mycobacterium tuberculosis H37Rv at 0.2080 uM
[6] = system: Mycobacterium tuberculosis; test: Antimycobacterial activity against Mycobacterium tuberculosis H37Rv at 0.0201 uM
[7] = system: Mycobacterium tuberculosis; test: Antimycobacterial activity against Mycobacterium tuberculosis H37Rv at 0.1706 uM
[8] = system: Mycobacterium tuberculosis; test: Antimycobacterial activity against Mycobacterium tuberculosis H37Rv at 0.0138 uM
[9] = system: Mycobacterium tuberculosis; test: Antimycobacterial activity against Mycobacterium tuberculosis H37Rv at 0.0140 uM
[10] = system: Mycobacterium tuberculosis; test: Antimycobacterial activity against Mycobacterium tuberculosis H37Rv at 0.0354 uM
[11] = system: Mycobacterium tuberculosis; test: Antimycobacterial activity against Mycobacterium tuberculosis H37Rv at 0.0135 uM
[12] = system: Mycobacterium tuberculosis; test: Antimycobacterial activity against Mycobacterium tuberculosis H37Rv at 0.0149 uM
[13] = system: Mycobacterium tuberculosis; test: Antimycobacterial activity against Mycobacterium tuberculosis H37Rv at 0.0977 uM
[14] = system: Mycobacterium tuberculosis; test: Antimycobacterial activity against Mycobacterium tuberculosis H37Rv at 0.0148 uM
[15] = system: Mycobacterium tuberculosis; test: Antimycobacterial activity against Mycobacterium tuberculosis H37Rv at 0.0143 uM
[16] = system: Mycobacterium tuberculosis; test: Antimycobacterial activity against Mycobacterium tuberculosis H37Rv at 0.0132 uM
[17] = system: Mycobacterium tuberculosis; test: Antimycobacterial activity against Mycobacterium tuberculosis H37Rv at 0.0092 uM
[18] = system: Mycobacterium tuberculosis; test: Antimycobacterial activity against Mycobacterium tuberculosis H37Rv at 0.0034 uM
[19] = system: Mycobacterium tuberculosis; test: Antimycobacterial activity against Mycobacterium tuberculosis H37Rv at 0.1467 uM
[20] = system: Mycobacterium tuberculosis; test: Antimycobacterial activity against Mycobacterium tuberculosis H37Rv at 0.0150 uM
[21] = system: Mycobacterium tuberculosis; test: Antimycobacterial activity against Mycobacterium tuberculosis H37Rv at 0.0084 uM
[22] = system: Mycobacterium tuberculosis; test: Antimycobacterial activity against Mycobacterium tuberculosis H37Rv at 0.0403 uM

COc1ccccc1NC(=S)N1N=C(c2ccc(O)c(C)c2)CC1c1ccc(OC)c(OC)c1 (stereo not given)
MIC [1]: 5.67 µg/mL (≈ 11.9 µM) | inhibition at 0.0118 µM [2]: 88%

COc1ccccc1NC(=S)N1N=C(c2ccc(O)c(C)c2)CC1c1ccc(F)cc1 (stereo not given)
inhibition at 0.0164 µM [3]: 16%

COc1ccccc1NC(=S)N1N=C(c2ccc(O)c(C)c2)CC1c1ccccc1Cl (stereo not given)
inhibition at 0.0202 µM [4]: 44%

COc1ccccc1NC(=S)N1N=C(c2ccc(O)c(C)c2)CC1c1cccc([N+](=O)[O-])c1 (stereo not given)
inhibition at 0.208 µM [5]: 8%

COc1ccccc1NC(=S)N1N=C(c2ccc(O)c(C)c2)CC1Cc1ccco1 (stereo not given)
inhibition at 0.0201 µM [6]: 18%

Cc1cc(C2=NN(C(=S)Nc3ccccc3C)C(Cc3ccco3)C2)ccc1O (stereo not given)
inhibition at 0.1706 µM [7]: 26%

COc1ccccc1NC(=S)N1N=C(c2ccc(O)c(C)c2)CC1c1ccc(Cl)cc1 (stereo not given)
MIC [1]: 6.25 µg/mL (≈ 13.8 µM) | inhibition at 0.0138 µM [8]: 4%

Cc1cc(C2=NN(C(=S)Nc3ccccc3C)C(c3ccc(N(C)C)cc3)C2)ccc1O (stereo not given)
inhibition at 0.014 µM [9]: 12% | MIC [1]: 6.25 µg/mL (≈ 14.1 µM)

Cc1cc(C2=NN(C(=S)Nc3ccccc3C)C(c3ccccc3)C2)ccc1O (stereo not given)
inhibition at 0.0354 µM [10]: 29%

COc1ccccc1NC(=S)N1N=C(c2ccc(O)c(C)c2)CC1c1ccc(N(C)C)cc1 (stereo not given)
inhibition at 0.0135 µM [11]: 28% | MIC [1]: 6.25 µg/mL (≈ 13.6 µM)

COc1ccccc1NC(=S)N1N=C(c2ccc(O)c(C)c2)CC1c1ccccc1 (stereo not given)
inhibition at 0.0149 µM [12]: 6% | MIC [1]: 6.25 µg/mL (≈ 15 µM)

COc1ccc(C2CC(c3ccc(O)c(C)c3)=NN2C(=S)Nc2ccccc2C)cc1OC (stereo not given)
inhibition at 0.0977 µM [13]: 72%

Cc1cc(C2=NN(C(=S)Nc3ccccc3C)C(c3ccc(F)cc3)C2)ccc1O (stereo not given)
MIC [1]: 6.25 µg/mL (≈ 14.9 µM) | inhibition at 0.0148 µM [14]: 32%

Cc1cc(C2=NN(C(=S)Nc3ccccc3C)C(c3c(Cl)cccc3Cl)C2)ccc1O (stereo not given)
MIC [1]: 6.25 µg/mL (≈ 13.3 µM) | inhibition at 0.0143 µM [15]: 21%

Cc1cc(C2=NN(C(=S)Nc3ccccc3C)C(c3cccc([N+](=O)[O-])c3)C2)ccc1O (stereo not given)
MIC [1]: 6.25 µg/mL (≈ 14 µM) | inhibition at 0.0132 µM [16]: 14%

COc1ccc(C2CC(c3ccc(O)c(C)c3)=NN2C(=S)Nc2ccccc2OC)cc1 (stereo not given)
MIC [1]: 4.12 µg/mL (≈ 9.21 µM) | inhibition at 0.0092 µM [17]: 94%

COc1ccccc1NC(=S)N1N=C(c2ccc(O)c(C)c2)CC1c1c(Cl)cccc1Cl (stereo not given)
inhibition at 0.0034 µM [18]: 98% | MIC [1]: 1.66 µg/mL (≈ 3.41 µM)

COc1cc(C2CC(c3ccc(O)c(C)c3)=NN2C(=S)Nc2ccccc2C)cc(OC)c1OC (stereo not given)
inhibition at 0.1467 µM [19]: 44%

Cc1cc(C2=NN(C(=S)Nc3ccccc3C)C(c3ccccc3Cl)C2)ccc1O (stereo not given)
MIC [1]: 6.25 µg/mL (≈ 14.3 µM) | inhibition at 0.015 µM [20]: 33%

COc1ccccc1NC(=S)N1N=C(c2ccc(O)c(C)c2)CC1c1cc(OC)c(OC)c(OC)c1 (stereo not given)
inhibition at 0.0084 µM [21]: 92%

Cc1cc(C2=NN(C(=S)Nc3ccccc3C)C(c3ccc(Cl)cc3)C2)ccc1O (stereo not given)
MIC [1]: 6.25 µg/mL (≈ 14.3 µM) | inhibition at 0.0143 µM [15]: 44%

COc1ccc(C2CC(c3ccc(O)c(C)c3)=NN2C(=S)Nc2ccccc2C)cc1 (stereo not given)
inhibition at 0.0403 µM [22]: 6%

NNC(=O)c1ccncc1 [ISONIAZID]
MIC [1]: 0.025 µg/mL (≈ 0.182 µM)
